# Data: patent publication US6635030B1 (B.H.B. LLC, priority 1999, dated 2003)
# Assay: Empiric porcine aortic contrast enhancement, dynamic CT after i.v. contrast injection
# Format: in vivo, pig
# Description: In order to test the mathematical solutions, a porcine study was conducted. All animal care and procedures performed were approved by the Institutional Animal Study Committee. […] Each session was separated by at least two days. Two pigs had all their sessions within a week, while the other two pigs had their first two and last sessions delays 4-5 weeks, which results in an increase in their weight to 35-40 kg in their last session. In each session, the pig was anesthetized, intubated, and underwent scanning for three or four sets of images obtained in random order. During scanning, each pig was ventilated with oxygen and low tidal volume to minimize breathing motion artifact. […] Each set of scans were 45-60 minutes apart to minimize the effect of prior contrast administration. All CT scanning was performed with a Somatom Plus-S scanner (Siemens Medical Systems, […].) using a one-second scanning time and a one-second interscan delay. Three types of injection schemes were tested: uniphasic, biphasic, and multiphasic. Biphasic injections were performed by a prior art power injector which was used in routine clinical CT scanning while uniphasic and multiphasic injections were conducted with a power injector which was invented for achieving the required protocols. This power injector was capable of delivering contrast medium in various uniphasic or multiphasic injection algorithms, as is explained in greater detail below. The multiphasic injection rate is determined by an initial injection rate and an exponential decay coefficient, as shown in FIG. 3. […] Most injections were performed with the initial injection rate of 2 mL/s. […] Three differential exponential decay coefficients (0.007, 0.017, 0.026) were tested. […] These were the three smallest discrete increments allowed in the prototype of the inventive power injector. Decay coefficient higher than 0.03 was not used because it was evident that a further increase in the coefficient would deviate further away from uniform vascular enhancements. A uniphasic injection was determined as being equivalent to a zero exponential decay coefficient where the injection rate remains constant at an initial injection rate throughout the injection duration. […] Approximately half of the total contrast volume was injected in each phase of the biphasic injections. […] Attenuation values of the aorta were measured from post-contrast scans (at the same level as the pre-contrast scans) using a circular region of interest (ROI) at the center of the aorta. Contrast enhancement was calculated as the absolute different in attenuation value between the pre- and post-contrast scans. […] Means and standard deviations were also computed. The results are now explained.
# [1] = 25 kg pig, 50 mL of 282 mgI/mL contrast medium, uniphasic 2 mL/sec
# [2] = four pigs, 50 mL, 2 mL/s initial injection rate, decay constant 0.017
# [3] = four pigs, 70 mL, 2 mL/s initial injection rate, decay constant 0.017
compound,measurement,setting,value
"CNC(=O)c1c(I)c(NC(C)=O)c(I)c(C(=O)O)c1I.CNC[C@H](O)[C@@H](O)[C@H](O)[C@H](O)CO [contrast medium, iothalmate meglumine]",magnitude of the peak aortic enhancement (empiric),[1],250 HU
same,time to the peak aortic enhancement (empiric),[1],26 s
same,"increase of duration of enhancement within 90% of the peak (90%DCE), multiphasic vs uniphasic injection, mean",[2],81%
same,"reduction of peak aortic enhancement (PA), multiphasic vs uniphasic injection, mean",[2],19%
same,"decrease of peak aortic enhancement (PA), multiphasic vs uniphasic injection",[3],18%
same,"increase of duration of enhancement within 90% of the peak (90%DCE), multiphasic vs uniphasic injection",[3],94%
